Measured values published in patent publication US11891359B2, “Prenylated psilocybin derivatives and methods of using” (ENVERIC B[…] INC., priority 2021, dated 2024).

Legend:
5-HT2A receptor = biological target: T1, 5-HT2A receptor (Homo sapiens, UniProt P28223); experiment: [3H]ketanserin competition binding assay (Scintillation Proximity Assay) on membranes containing 5-HT2A; conditions: fixed 1 nM [3H]ketanserin; for competition binding curve result (binding / no binding): psilocin 30 pM to 10 μM, tryptophan 3 nM to 1 mM, FIGS. 14C, 14D
T1 construct: purchased PerkinElmer ES-313-M400UA
T1 sequence (P28223 whole entry): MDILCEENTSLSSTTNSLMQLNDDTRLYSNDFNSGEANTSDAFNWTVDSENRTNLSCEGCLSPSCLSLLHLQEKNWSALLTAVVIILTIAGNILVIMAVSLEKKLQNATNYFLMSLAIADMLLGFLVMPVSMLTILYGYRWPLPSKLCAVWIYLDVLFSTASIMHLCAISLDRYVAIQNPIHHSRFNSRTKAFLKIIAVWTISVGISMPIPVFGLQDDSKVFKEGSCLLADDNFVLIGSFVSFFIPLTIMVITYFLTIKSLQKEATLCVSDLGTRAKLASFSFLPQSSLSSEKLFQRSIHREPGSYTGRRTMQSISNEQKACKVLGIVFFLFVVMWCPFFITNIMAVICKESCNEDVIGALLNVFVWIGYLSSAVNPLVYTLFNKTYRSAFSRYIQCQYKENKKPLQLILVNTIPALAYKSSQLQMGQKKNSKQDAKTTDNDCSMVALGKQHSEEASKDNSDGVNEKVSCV
Text: Evaluation of drug binding is an essential step to characterization of all drug-target interactions (Fang 2012, Exp Opin Drug Discov 7:969). The binding affinity of a drug to a target is traditionally viewed as an acceptable surrogate of its in vivo efficacy (Núñez et al., 2012, Drug Disc Today 17: 10). Competition assays, also called displacement or modulation binding assays, are a common approach to measure activity of a ligand at a target receptor (Flanagan 2016, Methods Cell Biol 132: 191). In these assays, standard radioligands acting either as agonists or antagonists are ascribed to specific receptors. In the case of G protein-coupled receptor 5-HT2A, [^3H]ketanserin is a well-established antagonist used routinely in competition assays to evaluate competitive activity of novel drug candidates at the 5-HT2A receptor (Maguire et al., 2012, Methods Mol Biol 897: 31). Thus, to evaluate activity of novel psilocybin derivatives at the 5-HT2A receptor, competition assays using [^3H]ketanserin were employed as follows. SPA beads (RPNQ0010), [^3H] ketanserin (NET1233025UC), membranes containing 5-HT2A (ES-313-M400UA), and isoplate-96 microplate (6005040) were all purchased from PerkinElmer. Radioactive binding assays were carried out using Scintillation Proximity Assay (SPA). […] After incubation, the samples were read on a MicroBeta 2 Microplate Counter (Perkin Elmer). […] Equilibrium binding constants for ketanserin (Kd) were determined from saturation binding curves using the ‘one-site saturation binding analysis’ method of GraphPad PRISM software (Version 9.2.0). […] Ki values were calculated from the competition displacement data using the competitive binding analysis from GraphPad PRISM software. […] Specific binding in counts per minute (cpm) was calculated by subtracting non-specific binding from total binding. Specific binding (pmol/mg) was calculated from pmol of [^3H]ketanserin bound per mg of protein in the assay. The Kd was calculated by fitting the data with the one-site binding model of PRISM software (version 9.2.0). […]

[1] = tested on: CHO-K1/Gα15 (−5-HT1A) cells; experiment: cAMP-Glo assay in −5-HT1A control cells (CHO-K1/Gα15) with 4 μM forskolin; type: cell-based; conditions: for trend of % cAMP levels with decreasing dosage of test molecule: −5HT1A cell cultures, fixed 4 μM forskolin
Text: CHO-K1/Gα15 (GenScript, M00257) (−5-HT1A) and CHO-K1/5-HT1A/Gα15 (GenScript, M00330) (+5-HT1A) cells lines were used. Briefly, CHO-K1/Gα15 is a control cell line that constitutively expresses Gα15 which is a promiscuous Gq protein. This control cell line lacks any transgene encoding 5-HT1A receptors, but still responds to forskolin; thus, cAMP response to forskolin should be the same regardless of whether or not 5-HT1A agonists are present. Conversely, CHO-K1/5-HT1A/Gα15 cells stably express 5-HT1A receptor in the CHO-K1 host background. […] In+5-HT1A cells, Gα15 may be recruited in place of Gαi/o, which could theoretically dampen cAMP response (Rojas and Fiedler 2016, Front Cell Neurosci 10: 272). […] Cells were maintained in complete growth media as recommended by supplier (GenScript) which is constituted as follows: Ham's F12 Nutrient mix (HAM's F12, GIBCO #11765-047) with 10% fetal bovine serum (FBS) (Thermo Scientific #12483020), 200 μg/ml zeocin (Thermo Scientific #R25005) and/or 100 μg/ml hygromycin (Thermo Scientific #10687010). The cells were cultured in a humidified incubator with 37° C. and 5% CO2. Cells maintenance was carried out as recommended by the cell supplier. Briefly, vials with cells were removed from the liquid nitrogen and thawed quickly in 37° C. water bath. Just before the cells were completely thawed the vial's outside was decontaminated by 70% ethanol spray. The cell suspension was then retrieved from the vial and added to warm (37° C.) complete growth media, and centrifuged at 1,000 rpm for 5 minutes. […]
As 5-HT1A activation inhibits cAMP formation, the agonist activity of test molecules on 5-HT1A was measured via the reduction in the levels of cAMP produced due to application of 4 μM forskolin. The change in intracellular cAMP levels due to the treatment of novel molecules was measured using cAMP-Glo Assay kit (Promega #V1501). […] Reduced ATP caused reduced conversion of luciferin to oxyluciferin, conferring diminished luminescence as the result of 5-HT1A activation. […]

5-HT1A receptor = biological target: T2, 5-HT1A receptor (Homo sapiens, UniProt P08908); experiment: cAMP-Glo assay in +5-HT1A cells (CHO-K1/5-HT1A/Gα15) with 4 μM forskolin; type: cell-based; conditions: for cAMP / luminescence response to varying dosage of test molecule: +5HT1A cell cultures, fixed 4 μM forskolin, FIGS. 14H-14L
T2 construct: host or cells: CHO-K1 (co-expressing Gα15)
T2 sequence (P08908 1-422): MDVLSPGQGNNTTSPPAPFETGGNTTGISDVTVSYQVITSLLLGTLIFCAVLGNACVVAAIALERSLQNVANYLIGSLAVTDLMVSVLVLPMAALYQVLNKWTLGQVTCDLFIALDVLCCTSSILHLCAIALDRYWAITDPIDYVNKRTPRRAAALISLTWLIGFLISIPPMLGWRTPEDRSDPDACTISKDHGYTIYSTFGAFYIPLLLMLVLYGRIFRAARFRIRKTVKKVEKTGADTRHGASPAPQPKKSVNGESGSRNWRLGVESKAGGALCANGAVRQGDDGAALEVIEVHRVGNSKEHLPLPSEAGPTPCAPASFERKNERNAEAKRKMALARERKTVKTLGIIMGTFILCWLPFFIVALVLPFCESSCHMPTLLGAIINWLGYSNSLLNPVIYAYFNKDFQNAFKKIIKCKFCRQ
Text: CHO-K1/Gα15 (GenScript, M00257) (−5-HT1A) and CHO-K1/5-HT1A/Gα15 (GenScript, M00330) (+5-HT1A) cells lines were used. Briefly, CHO-K1/Gα15 is a control cell line that constitutively expresses Gα15 which is a promiscuous Gq protein. This control cell line lacks any transgene encoding 5-HT1A receptors, but still responds to forskolin; thus, cAMP response to forskolin should be the same regardless of whether or not 5-HT1A agonists are present. Conversely, CHO-K1/5-HT1A/Gα15 cells stably express 5-HT1A receptor in the CHO-K1 host background. […] In+5-HT1A cells, Gα15 may be recruited in place of Gαi/o, which could theoretically dampen cAMP response (Rojas and Fiedler 2016, Front Cell Neurosci 10: 272). […] Cells were maintained in complete growth media as recommended by supplier (GenScript) which is constituted as follows: Ham's F12 Nutrient mix (HAM's F12, GIBCO #11765-047) with 10% fetal bovine serum (FBS) (Thermo Scientific #12483020), 200 μg/ml zeocin (Thermo Scientific #R25005) and/or 100 μg/ml hygromycin (Thermo Scientific #10687010). The cells were cultured in a humidified incubator with 37° C. and 5% CO2. Cells maintenance was carried out as recommended by the cell supplier. Briefly, vials with cells were removed from the liquid nitrogen and thawed quickly in 37° C. water bath. Just before the cells were completely thawed the vial's outside was decontaminated by 70% ethanol spray. The cell suspension was then retrieved from the vial and added to warm (37° C.) complete growth media, and centrifuged at 1,000 rpm for 5 minutes. The supernatant was discarded, and the cell pellet was then resuspended in another 10 ml of complete growth media, and added to the 10 cm cell culture dish (Greiner Bio-One #664160). The media was changed every third day until the cells were about 90% confluent. The ˜90% confluent cells were then split 10:1 for maintenance or used for experiment.
As 5-HT1A activation inhibits cAMP formation, the agonist activity of test molecules on 5-HT1A was measured via the reduction in the levels of cAMP produced due to application of 4 μM forskolin. The change in intracellular cAMP levels due to the treatment of novel molecules was measured using cAMP-Glo Assay kit (Promega #V1501). Briefly, +5-HT1A cells were seeded on 1-6 columns and base −5-HT1A cells were seeded on columns 7-12 of the white walled clear bottom 96-well plate (Corning, #3903). Both cells were seeded at the density of 30,000 cells/well in 100 μl complete growth media and cultured 24 hrs in humidified incubator at 37° C. and 5% CO2. On the experiment day, the media of cells was replaced with serum/antibiotic free culture media. […] Reduced ATP caused reduced conversion of luciferin to oxyluciferin, conferring diminished luminescence as the result of 5-HT1A activation. […]

Structure (SMILES)	competition binding curve result (binding / no binding) (5-HT2A receptor)	trend of % cAMP levels with decreasing dosage of test molecule [1]	cAMP / luminescence response to varying dosage of test molecule (5-HT1A receptor)	further results
CN(C)CCc1c[nH]c2cccc(O)c12 [psilocin]	binding	–	–	–
CC(=O)NCCc1c[nH]c2cc(CC=C(C)C)ccc12 [compound (IV)]	–	not observed	5-HT1A modulation activity	modulation of the impact of serotonin on cAMP / luminescence ([1]; −5-HT1A cell cultures, fixed 4 μM forskolin and 10 uM serotonin, FIGS. 14M, 14N): not notable; modulation of the impact of serotonin on cAMP / luminescence (5-HT1A receptor; +5-HT1A cell cultures, fixed 4 μM forskolin and 10 uM serotonin, FIGS. 14M, 14N): modulated by the presence of compound (IV) in a concentration-dependent manner; specific binding of [3H]ketanserin in competition with test compound (5-HT2A receptor; unlabeled test compound 3 nM to 1 mM, competition not complete, FIGS. 14E, 14F): ~50%
NCCc1c[nH]c2ccc(O)cc12 [serotonin, reference compound]	–	not observed	5-HT1A binding activity	–
CN(C)CCc1c[nH]c2ccccc12 [DMT, reference compound]	–	–	5-HT1A activity	–
N[C@@H](Cc1c[nH]c2ccccc12)C(=O)O [tryptophan]	no binding	–	–	–
